Measured values taken from US7803571B2, “Method for identifying IRS inhibitors or agonists” (Sanfoi-Aventis Deutschland GmbH, priority 2003, dated 2010).

Columns and labels:
Type in all cases: biochemical
insulin receptor = biological target: T1, insulin receptor (Rattus norvegicus, UniProt P15127); experiment: In vitro phosphorylation assay: tyrosine phosphorylation of rIRS-1^449-664 by insulin receptor; conditions: BIM added for 10 min before substrate phosphorylation by IR
T1 construct: from tissue; host or cells: rat liver
Method: Rat liver was rapidly removed, immediately frozen in liquid nitrogen and processed as described (41). Briefly, 3.5 vol/wt of an ice-cold buffer consisting of 50 mM Hepes (pH 7.4), 1% Triton X-100 and 2× Complete Protease Inhibitors was added and the liver was homogenized using an Ultraturrax and a Potter-Elvehjem homogenizer, followed by centrifugation at 10,000×g for 10 min at 4° C. The resultant supernatant was slowly stirred at room temperature for 60 min, then again centrifuged at 100,000×g for 90 min at 4° C. The supernatant was then applied to an agarose-bound wheat germ agglutinin (WGA) column. The column was washed with 50 mM Hepes (pH 7.4), 0.1% Triton X-100, and bound glycoproteins were eluted from the WGA column with this buffer containing 0.3 M N-acetylglucoseamine.
(§1) For rIRS-1^449-664 phosphorylation by insulin receptor, […] of the WGA-purified glycoprotein fraction was preincubated for 30 min at 30° C. with 100 nM of insulin in a phosphorylation buffer containing 20 mM Hepes (pH 7.4), 1 mM DTT, 10 mM MgCl2, 100 μg/ml bovine serum albumin, 0.2 mM Na3VO4, 1.7 mM CaCl2, 0.6 mg/ml phosphatidylserine, and 0.5 μg/ml okadaic acid. Autophosphorylation was initiated by the addition of ATP at a concentration of 50 μM and continued for 10 min at 30° C. Substrate phosphorylations were initiated by addition of equal volumes of […] (1 μg) with or without pre-treatment (30 min) by the PKC isoforms in the same buffer in the presence of 50 μM ATP and was allowed to proceed for 10 min at 30° C. in a final volume of 50 μl. The reaction was terminated by the addition of 6× sample buffer (0.35 M Tris-HCl (pH 6.8), 10.28% (w/v) SDS, 36% (v/v) glycerol; 0.6 M DTT, 0.012% (w/v) bromphenol blue) and boiling for 5 min. Proteins were separated by SDS-PAGE and analyzed by immunodetection with an anti-phosphotyrosine antibody after transfer to nitrocellulose. Serine/threonine phosphorylation of rIRS-1^449-664 by different PKC isoforms was assessed by incubating 1 μg rIRS-1^449-664 with 0.5 μg PKC-rb or PKC-ζ in phosphorylation buffer for 30 min at 30° C. in the presence of 50 μM ATP plus 2 μCi [γ-^32P]ATP in a volume of 20 μl. Proteins were resolved by SDS-PAGE and the stained and dried gels were subjected to autoradiography. The extent of phosphate incorporation was determined by Cerenkov counting of excised fragments.
Proteins were separated by SDS-PAGE using 8-18% gradient gels followed by transfer to nitrocellulose in a semi-dry blotting apparatus. […] All blots were quantified using the Lumilmager software. Significance of reported differences was evaluated by using the null hypothesis and t statistics for unpaired data. […]

PKC = experiment: Phosphorylation of IRS-1 serine 612 by PKC, immunoblot with phosphoserine 612 antibody; conditions: PKC from rat brain and PKC-ζ, 30 min at 30° C.
Method: (A) 0.5 μg of rIRS-1^449-664 was incubated with 0.5 μg of the different PKCs for 30 min at 30° C. and immunoblotted with an antibody against phosphoserine 612. A representative experiment is shown. (B) Binding of p85α to immobilized peptides corresponding to the IRS-1 amino acids 605 to 615 with phosphotyrosine 608 or (C) without phosphotyrosine using surface plasmon resonance (pY608 -DDGpYMPMSPGV and Y608 -DDGYMPMSPGV). Protein concentrations of p85α used were (from bottom to top): 1, 5,10, 25, 50,100, 250, 500 nM. (D) Inhibition of p85α binding by competition with soluble peptides pY608-DDGpYMPMSPGV or (E) pY608-pS612-DDGpYMPMpSPGV. The soluble peptides were also immobilized on the chip. (F) Half-maximum inhibitory concentrations (IC50) were obtained by plotting the SPR response at equilibrium (440 s after injection) versus the log peptide concentration.
The inventors assessed modification of this site by PKC using a specific IRS-1 phosphoserine 612 antibody (αpS^612).

[1] = test system: PKC from rat brain (PKC-rb); experiment: Serine/threonine phosphorylation of rIRS-1^449-664 by PKC from rat brain ([32P]ATP, autoradiography); conditions: 0.5 μg PKC-rb, 1 μg rIRS-1^449-664, 50 μM ATP
Method: as §1, with “The reaction was terminated by the addition of 6× sample buffer (0.35 M Tris-HCl (pH 6.8), 10.28% (w/v) SDS, 36% (v/v) glycerol; 0.6 M DTT, 0.012% (w/v) bromphenol blue) and boiling for 5 min.” left out, “Proteins were resolved by SDS-PAGE and the stained and dried gels were subjected to autoradiography.” left out, “fragments. […]” for “fragments.”

T1 sequence (P15127 27-759 limits assumed): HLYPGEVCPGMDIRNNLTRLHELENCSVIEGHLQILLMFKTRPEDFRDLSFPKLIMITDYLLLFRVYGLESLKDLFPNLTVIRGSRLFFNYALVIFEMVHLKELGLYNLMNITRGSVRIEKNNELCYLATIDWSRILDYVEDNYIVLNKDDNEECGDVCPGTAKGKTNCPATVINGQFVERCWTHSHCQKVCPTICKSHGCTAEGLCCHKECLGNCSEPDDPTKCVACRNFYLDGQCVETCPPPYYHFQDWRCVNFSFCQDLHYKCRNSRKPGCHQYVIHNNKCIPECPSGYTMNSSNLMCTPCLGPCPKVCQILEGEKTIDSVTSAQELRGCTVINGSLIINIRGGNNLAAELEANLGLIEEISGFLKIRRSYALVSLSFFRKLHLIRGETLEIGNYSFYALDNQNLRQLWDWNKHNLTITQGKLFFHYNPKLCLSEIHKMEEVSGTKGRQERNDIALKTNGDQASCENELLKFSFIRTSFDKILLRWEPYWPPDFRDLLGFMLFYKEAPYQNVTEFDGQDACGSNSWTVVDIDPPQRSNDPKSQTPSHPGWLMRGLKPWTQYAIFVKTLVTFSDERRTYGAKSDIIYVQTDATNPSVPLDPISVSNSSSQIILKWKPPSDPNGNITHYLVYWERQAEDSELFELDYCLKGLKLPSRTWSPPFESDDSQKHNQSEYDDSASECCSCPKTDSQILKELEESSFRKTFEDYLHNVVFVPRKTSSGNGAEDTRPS

For `CN(C)CCCn1cc(C2=C(c3c[nH]c4ccccc34)C(=O)NC2=O)c2ccccc21` [BIM, bisindolylmaleimide I], the “Effect of inhibiting PKC-rb after phosphorylation of rIRS-1^449-664 on the reduced tyrosine phosphorylation and p85α association” value (insulin receptor) was “did not modify this result”, the “Phosphorylation of serine 612 of rIRS-1^449-664 by PKC in the presence of inhibitor” value (PKC) was “clearly prevented the phosphorylation of this serine” and the “Phosphorylation of rIRS-1^449-664 by PKC-rb in the presence of inhibitor” value [1] was “inhibited”.
